Test results as given in PubChem BioAssay AID248 (DTP/NCI, 2004).
Where “and” joins values, the source holds several entries; their conditions need not be identical. Equal entries are not always repeated. Inconclusive results and toxic doses are left out. Cut-off read from the data, not from the text of the source: active = T/C of 150% or more; inactive = T/C below 125%.

Test system: L1210 leukemia ip in BDF1 mice, survival T/C
Assay: NCI In Vivo Anticancer Drug Screen. Data for tumor model L1210 Leukemia (intraperitoneal) in B6D2F1 (BDF1) mice
Settings: endpoint: mean survival time, higher = longer survival
Outline: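 Survival endpoint. Drug-treated group vs vehicle group, expressed as T divided by C. Tumor passaged by transplantation.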

[1] = dose: 100.0 mg/kg/injection, schedule: Q04DX002 (ip), vehicle: Klucel (hydroxypropylcellulose) (HPC)
[2] = dose: 200.0 mg/kg/injection, schedule: Q04DX002 (ip), vehicle: Klucel (hydroxypropylcellulose) (HPC)
[3] = dose: 400.0 mg/kg/injection, schedule: Q04DX002 (ip), vehicle: Klucel (hydroxypropylcellulose) (HPC)
[4] = dose: 100.0 mg/kg/injection, schedule: Q04DX003 (ip), vehicle: saline with Tween-80
[5] = dose: 100.0 mg/kg/injection, schedule: Q04DX002 (ip), vehicle: saline
[6] = dose: 100.0 mg/kg/injection, schedule: Q01DX001 (ip), vehicle: saline
[7] = dose: 200.0 mg/kg/injection, schedule: Q01DX001 (ip), vehicle: saline
[8] = dose: 100.0 mg/kg/injection, schedule: Q01DX001 (ip), vehicle: Klucel (hydroxypropylcellulose) (HPC)
[9] = dose: 200.0 mg/kg/injection, schedule: Q01DX001 (ip), vehicle: Klucel (hydroxypropylcellulose) (HPC)
[10] = dose: 400.0 mg/kg/injection, schedule: Q01DX001 (ip), vehicle: Klucel (hydroxypropylcellulose) (HPC)
[11] = dose: 400.0 mg/kg/injection, schedule: Q01DX001 (ip), vehicle: saline
[12] = dose: 100.0 mg/kg/injection, schedule: Q04DX002 (ip), vehicle: saline with Tween-80
[13] = dose: 200.0 mg/kg/injection, schedule: Q04DX002 (ip), vehicle: saline with Tween-80
[14] = dose: 400.0 mg/kg/injection, schedule: Q04DX002 (ip), vehicle: saline with Tween-80
[15] = dose: 50.0 mg/kg/injection, schedule: Q01DX001 (ip), vehicle: carboxymethylcellulose (CMC)
[16] = dose: 100.0 mg/kg/injection, schedule: Q01DX001 (ip), vehicle: carboxymethylcellulose (CMC)
[17] = dose: 200.0 mg/kg/injection, schedule: Q01DX001 (ip), vehicle: carboxymethylcellulose (CMC)
[18] = dose: 100.0 mg/kg/injection, schedule: Q04DX003 (ip), vehicle: saline

Measured: T/C

O=C(NCCc1ccccc1)c1ccc(Cl)cc1
inactive: [1] 115 % of control | [2] 92 % of control | [3] 89 % of control

O=C1OC(c2ccccc2)(C2(c3ccccc3)OC(=O)c3ccccc32)c2ccccc21 (centres undefined)
inactive: dose: 25.0 mg/kg/injection, schedule: Q04DX003 (ip), vehicle: saline with Tween-80 97 % of control | dose: 50.0 mg/kg/injection, schedule: Q04DX003 (ip), vehicle: saline with Tween-80 97 % of control | [4] 90 % of control

CC1CN=C(c2ccc(O)cc2O)S1 (centres undefined)
inactive: [5] 93 % of control | dose: 200.0 mg/kg/injection, schedule: Q04DX002 (ip), vehicle: saline 104 % of control | dose: 400.0 mg/kg/injection, schedule: Q04DX002 (ip), vehicle: saline 96 % of control

Nc1nc(N)c(N=Nc2ccc(C(=O)O)cc2)c(=O)[nH]1
inactive: [6] 105 % of control | [7] 106 % of control

CC(CCC/C=C/CCCN(C)C(=N)N)CC(C)C1OC(=O)C(C)C(O)/C=C/C(C)C(O)C(C)C(O)C(C)C(O)CCCC(O)CC2(O)OC(CC(OC(=O)CC(=O)O)CC(O)CC(O)C(C)C(O)/C=C/C=C/C1C)CC(O)C2O (centres undefined)
inactive: dose: 0.48 mg/kg/injection, schedule: Q01DX009 (ip), vehicle: saline 90 % of control | dose: 0.73 mg/kg/injection, schedule: Q01DX009 (ip), vehicle: saline 92 % of control | dose: 0.96 mg/kg/injection, schedule: Q04DX003 (ip), vehicle: saline 106 % of control | dose: 1.09 mg/kg/injection, schedule: Q01DX009 (ip), vehicle: saline 92 % of control | dose: 1.46 mg/kg/injection, schedule: Q04DX003 (ip), vehicle: saline 104 % of control | dose: 2.18 mg/kg/injection, schedule: Q04DX003 (ip), vehicle: saline 120 % of control | dose: 3.2 mg/kg/injection, schedule: Q04DX003 (ip), vehicle: saline 97 % of control | dose: 4.9 mg/kg/injection, schedule: Q04DX003 (ip), vehicle: saline 103 % of control and 86 % of control | dose: 7.3 mg/kg/injection, schedule: Q04DX003 (ip), vehicle: saline 92 % of control | dose: 23.0 micrograms/kg/injection, schedule: Q01DX001 (ip), vehicle: saline 98 % of control | dose: 23.0 micrograms/kg/injection, schedule: Q01DX009 (ip), vehicle: saline 100 % of control | dose: 23.0 micrograms/kg/injection, schedule: Q04DX003 (ip), vehicle: saline 105 % of control | dose: 47.0 micrograms/kg/injection, schedule: Q01DX001 (ip), vehicle: saline 104 % of control | dose: 47.0 micrograms/kg/injection, schedule: Q01DX009 (ip), vehicle: saline 108 % of control | dose: 47.0 micrograms/kg/injection, schedule: Q04DX003 (ip), vehicle: saline 106 % of control | dose: 95.0 micrograms/kg/injection, schedule: Q01DX001 (ip), vehicle: saline 97 % of control | dose: 95.0 micrograms/kg/injection, schedule: Q01DX009 (ip), vehicle: saline 94 % of control | dose: 95.0 micrograms/kg/injection, schedule: Q04DX003 (ip), vehicle: saline 101 % of control | dose: 141.0 micrograms/kg/injection, schedule: Q01DX009 (ip), vehicle: saline 106 % of control | dose: 141.0 micrograms/kg/injection, schedule: Q04DX003 (ip), vehicle: saline 97 % of control | dose: 215.0 micrograms/kg/injection, schedule: Q01DX009 (ip), vehicle: saline 105 % of control | dose: 215.0 micrograms/kg/injection, schedule: Q04DX003 (ip), vehicle: saline 100 % of control | dose: 322.0 micrograms/kg/injection, schedule: Q01DX009 (ip), vehicle: saline 103 % of control | dose: 322.0 micrograms/kg/injection, schedule: Q04DX003 (ip), vehicle: saline 103 % of control

CSc1nc(N)nc2nc(C)cc(C)c12
inactive: dose: 100.0 mg/kg/injection, schedule: Q01DX Z (ip), vehicle: methylcellulose (MC) 110 % of control

COc1cccc(-c2cc3c(OC)ccc(OC)c3[nH]2)c1
inactive: [1] 99 % of control | [2] 89 % of control | [3] 99 % of control

O=C1/C(=C\c2ccccc2)Sc2cc[nH]c21
inactive: [8] 96 % of control | [9] 105 % of control | [10] 96 % of control

CC(=O)OCC1OCOC2C(C(N)=O)OCOC12 (centres undefined)
inactive: [6] 103 % of control | [7] 103 % of control

CC(C)(C)CC(C)(C)O
inactive: [6] 102 % of control | [7] 102 % of control | [11] 96 % of control

CCCCSC(=O)C(C)O (centres undefined)
inactive: [12] 99 % of control | [13] 89 % of control | [14] 86 % of control

O=[N+]([O-])c1ccc(N/N=C(/Cc2ccccc2)c2ccc(Cl)cc2)c([N+](=O)[O-])c1
inactive: [6] 107 % of control | [7] 86 % of control | [11] 98 % of control

Cc1cc(Cl)nc(Cl)n1
inactive: dose: 25.0 mg/kg/injection, schedule: Q04DX002 (ip), vehicle: saline 88 % of control | dose: 50.0 mg/kg/injection, schedule: Q04DX002 (ip), vehicle: saline 98 % of control | [5] 98 % of control

O=C(Nc1ccc(F)cc1)Nc1cccc(Cl)c1
inactive: [15] 101 % of control | [16] 101 % of control | [17] 93 % of control | dose: 400.0 mg/kg/injection, schedule: Q01DX001 (ip), vehicle: carboxymethylcellulose (CMC) 106 % of control

COc1cc(C=O)ccc1OC(=O)Nc1cc(Cl)ccc1C
inactive: dose: 100.0 mg/kg/injection, schedule: Q01DX001 (ip), vehicle: saline with Tween-80 92 % of control | dose: 100.0 mg/kg/injection, schedule: Q01DX009 (ip), vehicle: saline with Tween-80 94 % of control and 97 % of control | [12] 95 % of control and 88 % of control | [4] 97 % of control | dose: 200.0 mg/kg/injection, schedule: Q01DX001 (ip), vehicle: saline with Tween-80 88 % of control | dose: 200.0 mg/kg/injection, schedule: Q01DX009 (ip), vehicle: saline with Tween-80 106 % of control and 115 % of control | [13] 95 % of control and 98 % of control | dose: 200.0 mg/kg/injection, schedule: Q04DX003 (ip), vehicle: saline with Tween-80 95 % of control | dose: 400.0 mg/kg/injection, schedule: Q01DX001 (ip), vehicle: saline with Tween-80 97 % of control | dose: 400.0 mg/kg/injection, schedule: Q01DX009 (ip), vehicle: saline with Tween-80 105 % of control and 90 % of control | [14] 90 % of control and 91 % of control | dose: 400.0 mg/kg/injection, schedule: Q04DX003 (ip), vehicle: saline with Tween-80 103 % of control

CCCC[N+](C)(C)CCOC(=O)C1C2CC3OC(=O)C1C3C2 (centres undefined)
inactive: [18] 95 % of control

C[C@]12CCC(=O)C=C1CC[C@@H]1[C@@H]2[C@@H](O)C[C@@]2(C)[C@H]1CC[C@]2(O)C(=O)COC(=O)CCC1CCCC1
inactive: dose: 50.0 mg/kg/injection, schedule: Q04DX003 (sc), vehicle: steriod suspending solution 100 % of control | dose: 100.0 mg/kg/injection, schedule: Q04DX003 (sc), vehicle: steriod suspending solution 96 % of control | dose: 200.0 mg/kg/injection, schedule: Q04DX003 (sc), vehicle: steriod suspending solution 97 % of control | dose: 400.0 mg/kg/injection, schedule: Q04DX003 (sc), vehicle: steriod suspending solution 96 % of control

CCC1(CCCCBr)OCCO1
inactive: [8] 103 % of control | [9] 100 % of control | [10] 93 % of control

COc1cccc(CCNC(=O)CC(=O)O)c1OC
inactive: [18] 92 % of control | dose: 200.0 mg/kg/injection, schedule: Q04DX003 (ip), vehicle: saline 103 % of control | dose: 400.0 mg/kg/injection, schedule: Q04DX003 (ip), vehicle: saline 110 % of control

CC(=N\NS(=O)(=O)c1ccc(C)cc1)/C(C)=N/NS(=O)(=O)c1ccc(C)cc1
inactive: dose: 75.0 mg/kg/injection, schedule: Q01DX001 (ip), vehicle: saline 87 % of control | dose: 150.0 mg/kg/injection, schedule: Q01DX001 (ip), vehicle: saline 89 % of control | dose: 300.0 mg/kg/injection, schedule: Q01DX001 (ip), vehicle: saline 90 % of control

Cn1cnc2c(C#N)c(C#N)nn2c1=O
inactive: [15] 93 % of control | [16] 90 % of control | [17] 93 % of control
